Laboratory results: US20240247215A1, “BIOMIMETIC SYSTEM AND METHOD FOR MANUFACTURING SAME” (JSR CORPORATION, priority 2021, published 2024)

Key:
BCRP = biological target: T1, BCRP (Homo sapiens, UniProt Q9UNQ0); assay: Efflux ratio of Hoechst 33342 (BCRP substrate) in biomimetic system; type: in vitro ADME; conditions: Hoechst 33342 as substrate; system as Manufacturing Example 1, 15 culture days; average of four measurements
T1 construct: the human cholangiocyte-like cells further express at least one or more transporters selected from the group consisting of MRP2, BSEP, and BCRP; endogenous in cells; host or cells: human cholangiocyte-like cells (bile duct organoid derived) on a permeable insert
T1 sequence (Q9UNQ0 1-655): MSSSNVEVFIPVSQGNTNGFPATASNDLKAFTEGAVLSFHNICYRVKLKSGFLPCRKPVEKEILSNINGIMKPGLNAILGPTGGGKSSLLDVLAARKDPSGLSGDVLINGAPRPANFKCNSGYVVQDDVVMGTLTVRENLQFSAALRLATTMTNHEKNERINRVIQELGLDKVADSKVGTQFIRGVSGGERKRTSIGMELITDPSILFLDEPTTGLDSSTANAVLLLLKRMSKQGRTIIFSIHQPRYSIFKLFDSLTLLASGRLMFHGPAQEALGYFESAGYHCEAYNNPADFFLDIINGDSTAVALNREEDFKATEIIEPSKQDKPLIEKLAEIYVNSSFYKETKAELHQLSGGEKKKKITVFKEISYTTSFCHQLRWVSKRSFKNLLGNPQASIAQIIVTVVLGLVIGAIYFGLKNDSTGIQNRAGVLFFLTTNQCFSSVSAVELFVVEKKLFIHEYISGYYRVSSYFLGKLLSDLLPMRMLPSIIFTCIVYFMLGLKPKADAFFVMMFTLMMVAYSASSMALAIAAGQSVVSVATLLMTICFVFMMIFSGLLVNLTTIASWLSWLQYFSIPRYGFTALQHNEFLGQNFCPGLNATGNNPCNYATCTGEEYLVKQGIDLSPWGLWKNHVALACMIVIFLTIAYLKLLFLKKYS
Protocol: The efflux ratio of Hoechst 33342 (CAS number: 23491-52-3), which is a substrate for BCRP, was measured by using the biomimetic system.
Human cholangiocyte-like cells were manufactured by a method similar to that used in Experimental Example 9. In addition, a biomimetic system was manufactured in the same manner as in Manufacturing Example 1 of Experimental Example 2, except that the number of culture days was set to 15 days. The TEER of the manufactured biomimetic system was measured by the same method as that used in Experimental Example 2, and the value was 284.83 Ω·cm^2.
The transport amounts of Hoechst 33342 were measured in the same manner as in Experimental Example 3, except that Hoechst 33342 was used in place of rhodamine 123 as a substrate. Regarding Hoechst 33342, a solution obtained by dissolving the substance in deionized water to a concentration of 1% by mass was used.
FIG. 12A is a graph showing the results of measuring the transport amount (BtoA) four times, and FIG. 12B is a graph showing the results of measuring the transport amount (AtoB) four times. The axis of abscissa in the graph represents the time (minutes), and the axis of ordinate represents the amount (pmoL) of transported Hoechst 33342. The efflux ratio calculated in the same manner as in Experimental Example 3 from the average value of the results of the four measurements was about 23.0.

P-gp = biological target: T2, P-gp (Homo sapiens, UniProt P08183); assay: Efflux ratio by P-gp: rhodamine 123 transport (AtoB/BtoA) across human cholangiocyte-like cell-containing membrane; type: in vitro ADME; conditions: rhodamine 123 10 μM
T2 construct: the human cholangiocyte-like cells express P-glycoprotein (P-gp); endogenous in cells; host or cells: human cholangiocyte-like cells derived from human bile duct organoids (from human primary hepatocytes), grown as a 2D membrane on a permeable insert
T2 sequence (P08183 whole entry): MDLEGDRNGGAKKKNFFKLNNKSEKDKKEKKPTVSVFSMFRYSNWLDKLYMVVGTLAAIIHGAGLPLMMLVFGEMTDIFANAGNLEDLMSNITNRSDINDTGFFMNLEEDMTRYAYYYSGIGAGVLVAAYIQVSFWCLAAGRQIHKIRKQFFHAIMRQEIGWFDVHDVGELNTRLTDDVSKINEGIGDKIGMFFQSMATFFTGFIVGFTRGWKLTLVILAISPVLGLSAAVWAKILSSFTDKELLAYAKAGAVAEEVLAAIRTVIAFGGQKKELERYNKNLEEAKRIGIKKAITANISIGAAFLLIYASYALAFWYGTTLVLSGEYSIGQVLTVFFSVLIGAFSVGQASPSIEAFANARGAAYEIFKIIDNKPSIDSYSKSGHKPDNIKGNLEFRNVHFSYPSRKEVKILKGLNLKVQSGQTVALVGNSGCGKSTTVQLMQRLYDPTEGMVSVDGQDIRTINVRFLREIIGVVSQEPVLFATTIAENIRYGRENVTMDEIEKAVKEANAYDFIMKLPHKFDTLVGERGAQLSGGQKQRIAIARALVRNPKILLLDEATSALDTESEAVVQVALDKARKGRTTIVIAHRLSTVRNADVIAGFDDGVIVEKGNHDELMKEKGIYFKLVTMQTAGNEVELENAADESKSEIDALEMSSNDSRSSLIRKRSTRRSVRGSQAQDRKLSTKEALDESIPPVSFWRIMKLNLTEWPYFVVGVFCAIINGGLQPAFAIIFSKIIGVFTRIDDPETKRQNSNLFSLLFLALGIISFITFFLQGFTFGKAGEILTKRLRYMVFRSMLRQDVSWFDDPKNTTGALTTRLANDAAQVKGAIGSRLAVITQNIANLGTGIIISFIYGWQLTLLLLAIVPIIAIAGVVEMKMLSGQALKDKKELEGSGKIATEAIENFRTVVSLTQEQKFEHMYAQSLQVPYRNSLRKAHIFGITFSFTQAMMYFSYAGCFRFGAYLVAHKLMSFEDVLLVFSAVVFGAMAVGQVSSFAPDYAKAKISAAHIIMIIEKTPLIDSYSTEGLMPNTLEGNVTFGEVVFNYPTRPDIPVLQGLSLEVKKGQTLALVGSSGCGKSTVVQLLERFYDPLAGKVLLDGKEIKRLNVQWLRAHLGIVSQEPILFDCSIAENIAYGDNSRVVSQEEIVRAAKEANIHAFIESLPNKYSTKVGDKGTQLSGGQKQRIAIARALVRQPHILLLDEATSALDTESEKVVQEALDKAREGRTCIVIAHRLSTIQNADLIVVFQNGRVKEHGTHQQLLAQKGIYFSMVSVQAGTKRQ
Protocol: FIG. 4A and FIG. 4B are graphs showing the measurement results of the transport amount (AtoB) and the transport amount (BtoA). […] In addition, as shown in FIG. 4A and FIG. 4B, approximation curves were each created based on the graphs of the transport amount (AtoB) and the transport amount (BtoA), and the gradient (permeation rate) was calculated. Subsequently, the efflux ratio (Efflux Ratio (ER)) was calculated based on Formula (2).
Efflux ratio=(Permeation rate of BtoA)/(permeation rate of AtoB) (2)
FIG. 6A to FIG. 6D are graphs showing the measurement results of the transport amount (AtoB) and the transport amount (BtoA). […] Each of FIG. 6A, FIG. 6B, FIG. 6C, and FIG. 6D presents the results of using a culture medium including Matrigel (registered trademark) at a concentration of 0, 0.1, 0.5, or 2 v/v %. In addition, as shown in FIG. 6A to FIG. 6D, approximation curves were each created based on the graphs of the transport amount (AtoB) and the transport amount (BtoA), and the gradient (permeation rate) was calculated. Subsequently, the efflux ratio was calculated based on the above-described Formula (2).
FIG. 7A to FIG. 7C are graphs showing the measurement results of the transport amount (AtoB) and the transport amount (BtoA). Each of FIG. 7A, FIG. 7B, and FIG. 7C presents the results of using a container coated with Matrigel (registered trademark) at a concentration of 2, 5, or 10 v/v %. In addition, as shown in FIG. 7A to FIG. 7C, approximation curves were each created based on the graphs of the transport amount (AtoB) and the transport amount (BtoA), and the gradient (permeation rate) was calculated. Subsequently, the efflux ratio was calculated based on the above-described Formula (2).

Efflux ratio (P-gp; Production Example 3, Matrigel 0 v/v % in culture medium, Day 17)	Efflux ratio (P-gp; Production Example 4, Matrigel 0.1 v/v % in culture medium, Day 17)	Efflux ratio (P-gp; Production Example 5, Matrigel 0.5 v/v % in culture medium, Day 17)	Efflux ratio (P-gp; Production Example 7, Matrigel 2 v/v % in culture medium, Day 17)	Efflux ratio (P-gp; Production Example 9, insert coated with 2 v/v % Matrigel, 14 culture days)	Efflux ratio (P-gp; Production Example 10, insert coated with 5 v/v % Matrigel, 14 culture days)	Efflux ratio (P-gp; Production Example 11, insert coated with 10 v/v % Matrigel, 14 culture days)	Efflux ratio (P-gp; biomimetic system of Manufacturing Example 2, Day 17 from start of culture)	Efflux ratio (P-gp; biomimetic system of Manufacturing Example 2, Day 23 from start of culture)	Molecule	Efflux ratio (BCRP)
–	–	–	–	–	–	–	–	–	CCOc1ccc(-c2nc3ccc(-c4nc5ccc(N6CCN(C)CC6)cc5[nH]4)cc3[nH]2)cc1 [Hoechst 33342]	about 23.0
1.7	1.7	2.2	1.3	4.93	4.70	3.89	7.3	11.6	rhodamine 123	–
